What was measured:
[1] = tested on: Enterococcus faecalis PIU 1967; assay: Assay A: in vitro antibacterial activity, agar dilution MIC; assay type: cell-based; details: Table 1, Assay A, BHI agar, 35-37° C., about 20 to 24 hours; code B = Enterococcus faecalis PIU 1967; unit assumed
Method: (§1) Assay A. Determination of Biological Activity In Vitro Assay of Antibacterial Activity
(§2) Representative compounds of the invention were assayed in vitro for antibacterial activity. Twelve petri dishes containing successive aqueous dilutions of the test compound mixed with sterilized Brain Heart Infusion (BHI) agar (Difco 0418-01-5) (10 mL) were prepared. Each plate was inoculated with 1:100 (or 1:10 for slow-growing strains, such as Micrococcus and Streptococcus) dilutions of up to 32 different microorganisms using a Steers replicator block. The inoculated plates were incubated at 35-37° C. for about 20 to about 24 hours. In addition, a control plate with BHI agar and no test compound was prepared and incubated at the beginning and end of each test.
(§3) An additional plate containing a compound having known susceptibility patterns for the organisms being tested and belonging to the same antibiotic class as the test compound was also prepared and incubated as a further control and to provide test-to-test comparability. Ciprofloxacin was used for this purpose.
(§4) After incubation, each plate was visually inspected. The minimum inhibitory concentration (MIC) was defined as the lowest concentration of drug yielding no growth, a slight haze, or sparsely isolated colonies on the inoculum spot as compared to the growth control.

Escherichia coli JUHL = assay: as above; assay type: cell-based; details: Table 1, Assay A, BHI agar, 35-37° C., about 20 to 24 hours; code D = Escherichia coli JUHL; unit assumed
Method: as §1, §2, §3, §4

[2] = tested on: Haemophilus influenzae DILL AMP R; assay: as above; assay type: cell-based; details: Table 1, Assay A, BHI agar, 35-37° C., about 20 to 24 hours; code E = Haemophilus influenzae DILL AMP R; unit assumed
Method: as §1, §2, §3, §4

[3] = tested on: Moraxella catarrahalis 2604; assay: as above; assay type: cell-based; details: Table 1, Assay A, BHI agar, 35-37° C., about 20 to 24 hours; code C = Moraxella catarrahalis 2604; unit assumed
Method: as §1, §2, §3, §4

[4] = tested on: Staphylococcus aureus ATCC 6538P; assay: as above; assay type: cell-based; details: Table 1, Assay A, BHI agar, 35-37° C., about 20 to 24 hours; code A = Staphylococcus aureus ATCC 6538P; unit assumed
Method: as §1, §2, §3, §4

[5] = tested on: Streptococcus pneumoniae ATCC 6303; assay: as above; assay type: cell-based; details: Table 1, Assay A, BHI agar, 35-37° C., about 20 to 24 hours; code F = Streptococcus pneumoniae ATCC 6303; unit assumed
Method: as §1, §2, §3, §4

| Antibacterial Activity (MIC's), B [1] | Antibacterial Activity (MIC's), D (Escherichia coli JUHL) | Antibacterial Activity (MIC's), E [2] | Antibacterial Activity (MIC's), C [3] | Antibacterial Activity (MIC's), A [4] | Antibacterial Activity (MIC's), F [5] | melting point | SMILES |
| --- | --- | --- | --- | --- | --- | --- | --- |
| 0.2 mg/L | 0.2 mg/L | 0.12 mg/L | 0.2 mg/L | 0.05 mg/L | 0.5 mg/L | 180 °C (dec.) | COc1c(-c2cc3c(s2)CCNC3)ccc2c(=O)c(C(=O)O)cn(C3CC3)c12.Cl [Example 2, 1-cyclopropyl-8-methoxy-4-oxo-7-(4,5,6,7-tetrahydrothieno[3,2-c]pyridin-2-yl)-1,4-dihydro-3-quinolinecarboxylic acid hydrochloride] |
| 0.39 mg/L | 0.2 mg/L | 0.06 mg/L | 0.2 mg/L | 0.2 mg/L | 0.25 mg/L | 188 to 189 °C | COc1c(-c2cc3c(s2)CNCC3)ccc2c(=O)c(C(=O)O)cn(C3CC3)c12.Cl [Example 7, 1-cyclopropyl-8-methoxy-4-oxo-7-(4,5,6,7-tetrahydrothieno(2,3-c)pyridin-2-yl)-1,4-dihydro-3-quinolinecarboxylic acid hydrochloride] |
| 0.1 mg/L | 0.2 mg/L | 0.125 mg/L | 0.1 mg/L | 0.05 mg/L | 0.25 mg/L | – | COc1c(-c2cc3c(s2)SCCC3N)ccc2c(=O)c(C(=O)O)cn(C3CC3)c12.Cl (stereo not shown) [Example 37, 7-(4-amino-5,6-dihydro-4H-thieno[2,3-b]thiopyran-2-yl)-1-cyclopropyl-8-methoxy-4-oxo-1,4-dihydro-3-quinolinecarboxylic acid hydrochloride] |
| 0.1 mg/L | 0.2 mg/L | 0.06 mg/L | 0.1 mg/L | 0.02 mg/L | 0.125 mg/L | 219 to 222 °C | COc1c(-c2cc3c(s2)CCCC3N)ccc2c(=O)c(C(=O)O)cn(C3CC3)c12.Cl (stereo not shown) [Example 40, 7-(4-amino-4,5,6,7-tetrahydro-1-benzothien-2-yl)-1-cyclopropyl-8-methoxy-4-oxo-1,4-dihydro-3-quinolinecarboxylic acid hydrochloride] |
| 0.39 mg/L | 0.78 mg/L | 0.125 mg/L | 0.02 mg/L | 0.02 mg/L | 0.25 mg/L | 232 to 233 °C | COc1c(-c2cc3c(s2)CCC(O)C3)ccc2c(=O)c(C(=O)O)cn(C3CC3)c12 (stereo not shown) [Example 42, 1-cyclopropyl-7-(5-hydroxy-4,5,6,7-tetrahydro-1-benzothien-2-yl)-8-methoxy-4-oxo-1,4-dihydro-3-quinolinecarboxylic acid] |
| 0.2 mg/L | 0.39 mg/L | 0.03 mg/L | 0.1 mg/L | 0.05 mg/L | 0.25 mg/L | – | COc1c(-c2cc3c(s2)CC(O)C3)ccc2c(=O)c(C(=O)O)cn(C3CC3)c12 (stereo not shown) [Example 45, 1-cyclopropyl-7-(5-hydroxy-5,6-dihydro-4H-cyclopentarblthien-2-yl)-8-methoxM-4-oxo-1,4-dihydro-3-quinolinecarboxylic acid] |
| 0.2 mg/L | 1.56 mg/L | 0.5 mg/L | 0.02 mg/L | 0.01 mg/L | 0.5 mg/L | – | COc1c(-c2cc3c(s2)CC(O)CC3)ccc2c(=O)c(C(=O)O)cn(C3CC3)c12 (stereo not shown) [Example 47, 1-cyclopropyl-7-(6-hydroxy-4,5,6,7-tetrahydro-1-benzothien-2-yl)-8-methoxy-4-oxo-1,4-dihydro-3-quinolinecarboxylic acid] |

Second part, the compound before the results:

| SMILES | Antibacterial Activity (MIC's), B [1] | Antibacterial Activity (MIC's), D (Escherichia coli JUHL) | Antibacterial Activity (MIC's), E [2] | Antibacterial Activity (MIC's), C [3] | Antibacterial Activity (MIC's), A [4] | Antibacterial Activity (MIC's), F [5] | melting point |
| --- | --- | --- | --- | --- | --- | --- | --- |
| Cl.O=C(O)c1cn(C2CC2)c2nc(-c3cc4c(s3)CNCC4)c(F)cc2c1=O [Example 9, 1-cyclopropyl-6-fluoro-4-oxo-7-(4,5,6,7-tetrahydrothieno(2,3-c)pyridin-2-yl)-1,4-dihydro[1,8]naphthyridine-3-carboxylic acid hydrochloride] | 0.2 mg/L | 0.1 mg/L | 0.06 mg/L | 0.1 mg/L | 0.1 mg/L | 0.125 mg/L | 290 to 291 °C |
| Br.CC1NCCc2sc(-c3ccc4c(=O)c(C(=O)O)cn(C5CC5)c4c3OC(F)F)cc21 (stereo not shown) [Example 20, 1-cyclopropyl-8-(difluoromethoxy)-7-(4-methyl-4,5,6,7-tetrahydrothieno[3,2-c]pyridin-2-yl)-4-oxo-1,4-dihydro-3-quinolinecarboxylic acid hydrobromide] | 0.78 mg/L | 0.78 mg/L | 0.25 mg/L | 0.78 mg/L | 0.2 mg/L | 1 mg/L | 176 to 180 °C (dec.) |
| CC1NCCc2cc(-c3nc4c(cc3F)c(=O)c(C(=O)O)cn4C3CC3)sc21.Cl (stereo not shown) [Example 22, 1-cyclopropyl-6-fluoro-7-(7-methyl-4,5,6,7-tetrahydrothieno(2,3-c)pyridin-2-yl)-4-oxo-1,4-dihydro[1,8]naphthyridine-3-carboxylic acid hydrochloride] | 0.78 mg/L | 0.78 mg/L | 0.25 mg/L | 0.39 mg/L | 0.2 mg/L | 2 mg/L | 293 to 294 °C |
| O=C1CCCc2sc(-c3nc4c(cc3F)c(=O)c(C(=O)O)cn4C3CC3)cc21 [Example 48, 1-cyclopropyl-6-fluoro-4-oxo-7-(4-oxo-4,5,6,7-tetrahydro-1-benzothien-2-yl)-1,4-dihydro[1,8]naphthyridine-3-carboxylic acid] | 0.2 mg/L | 0.78 mg/L | 0.06 mg/L | 0.02 mg/L | 0.02 mg/L | 0.25 mg/L | – |
| O=C(O)c1cn(C2CC2)c2nc(-c3cc4c(s3)CCC/C4=N\O)c(F)cc2c1=O [Example 49, 1-cyclopropyl-6-fluoro-7-((4E)-4-(hydroxyimino)-4,5,6,7-tetrahydro-1-benzothien-2-yl)-4-oxo-1,4-dihydro[1,8]naphthyridine-3-carboxylic acid] | 0.39 mg/L | 0.78 mg/L | 0.06 mg/L | 0.05 mg/L | 0.05 mg/L | 0.25 mg/L | – |
| CC1NCCc2cc(-c3ccc4c(=O)c(C(=O)O)cn(C5CC5)c4c3OC(F)F)sc21.Cl (stereo not shown) [Example 52, 1-cyclopropyl-8-diflouromethoxy-7-(7-methyl-4,5,6,7-tetrahydrotheino(2,3-c)pyrindin-2-yl)-4-oxo-1,4-dihydro-3-quinolinecarboxylic acid hydrochloride] | 0.78 mg/L | 0.39 mg/L | 0.25 mg/L | 0.2 mg/L | 0.2 mg/L | 0.25 mg/L | – |

— US20020049223A1, “Quinoline and naphthyridine carboxylic acid antibacterials” (priority 1999, published 2002)
